Consider 2 compounds from article PMC10542255, “A phase 1 trial of fuzuloparib in combination with apatinib for advanced ovarian and triple-negative breast cancer: efficacy, safety, pharmacokinetics and germline BRCA mutation analysis” (BMC Medicine, 2023).

The conditions of data set [1]: human, in vivo. As for the experimental part: The study used a standard 3 + 3 dose escalation design. The starting dose of fuzuloparib was 40 mg twice daily (bid) in combination with a fixed dose of apatinib at 250 mg once daily (qd); fuzuloparib could be dose escalated in 20 mg increments to up to 100 mg. An additional dose level of fuzuloparib 80 mg bid plus apatinib 375 mg qd was planned after assessment of the regimen of fuzuloparib 80 mg bid plus apatinib 250 mg qd. If dose escalation of fuzuloparib to 100 mg was completed, dose escalation for apatinib was initiated with two dose level planned: 375 mg qd and 500 mg qd (with fuzuloparib fixed at 100 mg bid). During dose escalation, the next-higher dose level was opened if less than one-third of patients in the previous dose level experienced a dose-limiting toxicity (DLT). Based on preliminary safety and efficacy data in the dose-escalation cohort, dose levels for PK-expansion were selected, with a total of 8–12 patients enrolled in each level. All patients received a single dose of oral fuzuloparib on day 1 and a single dose of oral apatinib on day 4 in cycle 0 (6 days in total), followed by continuous dosing of fuzuloparib and apatinib in 28-day cycles starting on cycle 1 day 1. Treatment continued until disease progression, intolerable toxicity, or patient withdrawal.
Pharmacokinetic sampling for single dose of fuzuloparib and apatinib was done on day 1 and day 4 (pre-dose and 0.5, 1, 2, 3, 4, 8, 12, 24, 48 h post-dose) of cycle 0, respectively; sampling for continuous dosing of the combination therapy was done on days 1 (pre-dose and 0.5, 1, 2, 3, 4, 8, 12, 24 h post-dose), 8 (pre-dose), 15 (pre-dose), 22 (pre-dose) of cycle 1, and day 1 (pre-dose and 0.5, 1, 2, 3, 4, 8, 12, 24 h post-dose) of cycle 2.
All enrolled patients who received at least one dose of study drug were included in the efficacy and safety analysis. […] Time-to-event endpoints were estimated using the Kaplan–Meier method, with the 95% CIs calculated using the Brookmeyer and Crowley method. PK parameters were calculated using the WinNonlin noncompartmental model. […]

The test system of data set [2] is gBRCAmut, platinum-sensitive OC. Further details: method as in PMID 33558426. Particulars: fuzuloparib monotherapy, phase 2, gBRCAmut platinum-sensitive OC; cited from earlier work.

On to `N#CC1(c2ccc(NC(=O)c3cccnc3NCc3ccncc3)cc2)CCCC1` [apatinib], for which, in data set [1], the “Dose dependence of apatinib plasma exposure (AUC0-∞)” value is recorded as “increased in a dose-dependent manner” and the “Reduction of apatinib AUC0-24 h (cycle 2 day 1) vs AUC0-∞ after single apatinib monotherapy dose (cycle 0 day 4)” value was 47.7%-65.0%.
As for `O=C(c1cc(Cc2n[nH]c(=O)c3ccccc23)ccc1F)N1CCn2nc(C(F)(F)F)nc2C1` [fuzuloparib], the “Dose dependence of fuzuloparib plasma exposure (AUC0-12 h)” value in data set [1] is recorded as “increased in a dose-dependent manner”. For the same compound, in data set [2], the “Median PFS” value was 12.0 months and the ORR is given as 69.9%.
